Measurements from patent US9981913B2, “Liver X receptor (LXR) modulators” (Ralexar Therapeutics, Inc., priority 2013, dated 2018).

What follows are molecules tested against T1, human LXRβ (AA 153-461) LBD (Homo sapiens, UniProt P55055) (assay: Gal4 LXRβ cotransfection assay (LXRβ Gal fusion assay)). Conditions: transiently transfected HEK 293 cells, Gal4-responsive luciferase reporter, compounds 0.01-10 μM, triplicate.
T1 construct: human LXRβ (AA 153-461) LBD plasmid; expressed in transfected cells; host or cells: HEK 293 cells, transient transfection with Fugene 6
T1 sequence (P55055 153-460 limits assumed): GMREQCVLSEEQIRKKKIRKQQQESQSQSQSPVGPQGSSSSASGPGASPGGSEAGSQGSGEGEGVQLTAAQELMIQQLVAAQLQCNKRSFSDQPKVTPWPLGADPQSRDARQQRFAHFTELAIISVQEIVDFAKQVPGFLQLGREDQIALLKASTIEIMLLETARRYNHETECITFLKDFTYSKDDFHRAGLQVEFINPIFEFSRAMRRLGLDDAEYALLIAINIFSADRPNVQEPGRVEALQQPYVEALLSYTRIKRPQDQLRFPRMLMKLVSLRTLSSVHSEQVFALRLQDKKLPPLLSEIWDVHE
Type: cell-based
Experimental: For transient transfection of HEK 293 cells, 6×10^3 cells are plated into 96-well dishes. Each well is transfected with 25 ng 5×UAS-luciferase reporter (pG5luc) and 25 ng of […] human LXRβ (AA 153-461) LBD plasmid using Fugene 6 reagent (Roche; Indianapolis, Ind.). The chimeric protein is assessed for the ability to transactivate a Gal4-responsive luciferase reporter plasmid in a concentration-responsive manner to compounds (0.01-10 μM). Luciferase activity at each dose concentration is measured in triplicate using standard substrate reagents (BD Biosciences; San Diego, Calif.). Data is expressed as relative light units and are shown below in Table 1.

Question: CCOC(=O)Cc1nc(C(F)(F)F)cn1-c1ccc(-c2cccc(S(C)(=O)=O)c2)cc1 [Example 1, Ethyl 2-(1-(3′-(methylsulfonyl)-[1,1′-biphenyl]-4-yl)-4-(trifluoromethyl)-1H-imidazol-2-yl)acetate] was tested. Which EC50 did it give?
Answer: 1 to 10 µM

Question: Which EC50 does the source give for CS(=O)(=O)c1cccc(-c2ccc(-n3cc(C(F)(F)F)nc3CC(=O)O)cc2)c1 [Example 2, 2-(1-(3′-(Methylsulfonyl)-[1,1′-biphenyl]-4-yl)-4-(trifluoromethyl)-1H-imidazol-2-yl)acetic acid] here?
Answer: > 10 µM

Question: How did the EC50 turn out when CCOC(=O)Cc1nc(C(F)(F)F)cn1-c1ccc(-c2ccc(CO)c(S(C)(=O)=O)c2)cc1 [Example 3, Ethyl 2-(1-(4′-(hydroxymethyl)-3′-(methylsulfonyl)-[1,1′-biphenyl]-4-yl)-4-(trifluoromethyl)-1H-imidazol-2-yl)acetate] was run?
Answer: < 1 µM

Question: For CS(=O)(=O)c1cc(-c2ccc(-n3cc(C(F)(F)F)nc3CC(=O)O)cc2)ccc1CO [Example 4, 2-(1-(4′-(Hydroxymethyl)-3′-(methylsulfonyl)[1,1′-biphenyl]-4-yl)-4-(trifluoromethyl)-1H-imidazol-2-yl)acetic acid], which EC50 is on record?
Answer: > 10 µM

Question: For CCOC(=O)c1cc(-c2ccc(-c3cccc(S(C)(=O)=O)c3)cc2)n(CC(C)C)n1 [Example 5, Ethyl 1-isobutyl-5-(3′-(methylsulfonyl)-[1,1′-biphenyl]-4-yl)-1H-pyrazole-3-carboxylate], which EC50 is on record?
Answer: < 1 µM

Question: Which EC50 does the source give for CC(C)Cn1nc(C(=O)O)cc1-c1ccc(-c2cccc(S(C)(=O)=O)c2)cc1 [Example 6, 1-Isobutyl-5-(3′-(methylsulfonyl)-[1,1′-biphenyl]-4-yl)-1H-pyrazole-3-carboxylic acid] here?
Answer: > 10 µM

Question: With CCOC(=O)c1cc(-c2ccc(-c3ccc(CO)c(S(C)(=O)=O)c3)cc2)n(CC(C)C)n1 [Example 7, Ethyl 5-(4′-(hydroxymethyl)-3′-(methylsulfonyl)[1,1′-biphenyl]-4-yl)-1-isobutyl-1H-pyrazole-3-carboxylate] as the molecule, how does the EC50 read?
Answer: 1 to 10 µM

Question: How did the EC50 turn out when CC(C)Cn1nc(C(=O)O)cc1-c1ccc(-c2ccc(CO)c(S(C)(=O)=O)c2)cc1 [Example 8, 5-(4′-(Hydroxymethyl)-3′-(methylsulfonyl)-[1,1′-biphenyl]-4-yl)-1-isobutyl-1H-pyrazole-3-carboxylic acid] was run?
Answer: > 10 µM

Question: CCOC(=O)c1cn(-c2ccc(-c3cccc(S(C)(=O)=O)c3)cc2)c(CC(C)C)n1 [Example 9, Ethyl 2-isobutyl-1-(3′-(methylsulfonyl)-[1,1′-biphenyl]-4-yl)-1H-imidazole-4-carboxylate] was tested. Which EC50 did it give?
Answer: 1 to 10 µM

Question: For CC(C)Cc1nc(C(=O)O)cn1-c1ccc(-c2cccc(S(C)(=O)=O)c2)cc1 [Example 10, 2-Isobutyl-1-(3′-(methylsulfonyl)-[1,1′-biphenyl]-4-yl)-1H-imidazole-4-carboxylic acid], which EC50 is on record?
Answer: > 10 µM

Question: For CCOC(=O)c1cn(-c2ccc(-c3ccc(CO)c(S(C)(=O)=O)c3)cc2)c(CC(C)C)n1 [Example 11, Ethyl 1-(4′-(hydroxymethyl)-3′-(methylsulfonyl)-[1,1′-biphenyl]-4-yl)-2-isobutyl-1H-imidazole-4-carboxylate], which EC50 is on record?
Answer: 1 to 10 µM

Question: With CC(C)Cc1nc(C(=O)O)cn1-c1ccc(-c2ccc(CO)c(S(C)(=O)=O)c2)cc1 [Example 12, 1-(4′-(Hydroxymethyl)-3′-(methylsulfonyl)-[1,1′-biphenyl]-4-yl)-2-isobutyl-1H-imidazole-4-carboxylic acid] as the molecule, how does the EC50 read?
Answer: > 10 µM

Question: C=C(C)c1cc(-c2ccc(-c3cccc(S(C)(=O)=O)c3)cc2)n(CC(=O)OCC)n1 [Example 13, Ethyl 2-(5-(3′-(methylsulfonyl)-[1,1′-biphenyl]-4-yl)-3-(prop-1-en-2-yl)-1H-pyrazol-1-yl)acetate] was tested. Which EC50 did it give?
Answer: < 1 µM

Question: For C=C(C)c1cc(-c2ccc(-c3cccc(S(C)(=O)=O)c3)cc2)n(CC(=O)O)n1 [Example 14, 2-(5-(3′-(Methylsulfonyl)-[1,1′-biphenyl]-4-yl)-3-(prop-1-en-2-yl)-1H-pyrazol-1-yl)acetic acid], which EC50 is on record?
Answer: > 10 µM

Question: For CCOC(=O)Cn1nc(C(C)C)cc1-c1ccc(-c2cccc(S(C)(=O)=O)c2)cc1 [Example 15, Ethyl 2-(3-isopropyl-5-(3′-(methylsulfonyl)-[1,1′-biphenyl]-4-yl)-1H-pyrazol-1-yl)acetate], which EC50 is on record?
Answer: 1 to 10 µM

Question: For CC(C)c1cc(-c2ccc(-c3cccc(S(C)(=O)=O)c3)cc2)n(CC(=O)O)n1 [Example 16, 2-(3-Isopropyl-5-(3′-(methylsulfonyl)-[1,1′-biphenyl]-4-yl)-1H-pyrazol-1-yl)acetic acid], which EC50 is on record?
Answer: > 10 µM
